Entries after “also recorded” stand apart in the source; their conditions may differ.
Key:
Assay type in all cases: in vivo
zebrafish embryos [1] = test: Microinjection of proteins into 24 hour embryos, effect on vessel formation
Experimental: To examine the effects of proteins and protein fragments (and peptides and peptide fragments) on angiogenesis in teleost embryos, proteins (and protein fragments and peptide fragments) were directly injected into the circulation of 24 hour zebrafish embryos. Embryos were collected and dechorionated as described above. The embryos were then sorted into holding ramps made of 1% agarose in embryo water and oriented with the yolk ball projecting up. Microinjection injection was performed as follows: the proteins were suspended in PBS and backfilled into a pulled glass micropipet. The micropipet was then attached to a micromanipulator and a picospritzer (General Valve) attached to a nitrogen tank. Using the micromanipulator, the tip of the micropipet was inserted into the embryo and a small volume of protein solution was expelled from the tip using positive pressure. To determine if our animal model could be used effectively to screen for these compounds, we performed a series of experiments in which we injected one of two different proteins having opposing effects on vessel formation—human endostatin (O'Reilly et al., Cell 88(2):277–285 (1997)) and human vascular endothelial growth factor (VEGF)—into an embryo. Endostatin, a collagen XVIII fragment, is an endogenous protein with potent anti-angiogenic activity. […] In preliminary experiments, we injected VEGF protein either into the yolk ball or into the perivitelline space between the yolk and the periderm. Because the second location is in the path of the venous return, proteins end up in the circulation of the embryo. To backfill the injection pipettes, we used a 2 mg/ml solution of VEGF. […] This is consistent with observations in other vertebrates. Drake et al., Proc. Natl. Acad. Sci. USA 92(17):7657–7661 (1995); Fouquet et al., supra. Endostatin was injected into the zebrafish as was VEGF.

zebrafish embryo = test: First screening experiments for anti-angiogenic effects (compound added to fish culture media); details: for other effects / complications in the embryo / effect on blood vessel formation: added to the fish culture media; for effect on blood vessel formation: AP staining day three; for diffusion into the zebrafish embryo: after addition to the media
Experimental: On the third day of development, embryos were collected for alkaline phosphatase staining. Specifically, embryos were fixed in 4% paraformaldehyde and stained for endogenous alkaline phosphatase activity. Embryos were fixed for 2 hours at room temperature. The embryos were then washed two times in phosphate buffered saline (PBS) and dehydrated by immersion in 25%, 50%, 75% and 100% methanol in phosphate buffered saline with 0.1% Tween (PBT) to permeabilize the embryos. The embryos were then rehydrated and washed in 100% PBT. For staining, embryos were equilibrated in NTMT buffer (0.1M Tris-HCl pH 9.5; 50 mM MgCl; 0.1M NaCl; 0.1% Tween 20) at room temperature. After the embryos equilibrated, embryos were stained by adding 4.5 μl of 75 mg/ml nitro blue tetrazolium (NBT) and 3.5 μL of 50 mg/ml X-phosphate per ml. After staining for 10 minutes, all the blood vessels in the fish embryo were labeled (see FIGS. 2A–2C, 3A–3B, 4, 7). The staining reaction was stopped by addition of PBST. Embryos were then examined on a stereo-dissecting microscope. One advantage of using the zebrafish for this type of assay is that the subintestinal vessels, which are located over the yolk, are both sensitive to factors which effect vessel formation and easily assayed by this method (see, e.g., FIG. 7). The subintestinal vessels are normally present on the dorsolateral surface of the yolk of zebrafish embryos by 48 hours of development. They form a distinct basket shape that extends 50–100 μm from the ventral edge of the somite over the yolk. By assaying the subintestinal vessels at 72 hours of development (24 hours after the subintestinal vessels normally appear), normal variation in the timing of the vessel formation was avoided. The staining procedure is easily automated using commercially available instrumentation.
In our first set of screening experiments for anti-angiogenic effects, we examined the effect of fumagillin, a natural anti-angiogenesis chemical, on blood vessel formation in the zebrafish embryo. The compound was administered by addition to the fish culture media. […] Using the screening parameters described above, we identified two compounds that caused apparently specific anti-angiogenic effects. In addition, we identified 16 other compounds that caused a reduction of angiogenic vessel formation in addition to other effects.

zebrafish embryos [2] = test: Fluorescent detection of cell death in live zebrafish embryos; details: 100 μM
Experimental: As an additional test of our cell death detection method, we also examined the ability of the dye to label cells in embryos treated with Ibuprofen, a cyclooxygenase inhibitor, which causes a characteristic pattern of cell death. This pattern consists of a posterior to anterior progression of dying cells as indicated by a progression of opacity changes in the cells of the embryo.
Embryos as 24 hours of development were pretreated for 1 hour with a 100 nanomolar concentration of the fluorescent dye (e.g., benzothiazolium-4-quinolium dye) in embryo media. The embryos were then exposed to 100 μM of Ibuprofen by addition to the media and examined by light and epifluorescence microscopy every 15 minutes for 2 hours. Control embryos were pretreated with the same concentration of dye, but were not exposed to the Ibuprofen. […] This pattern of fluorescently labeled cells was identical to the pattern observed for the opacity changes in the embryo.

zebrafish embryos [3] = test: Rescue of induced cell death activity; details: for opacity at two hours after the addition of 100 μM Ibuprofen / opaque cells at one hour after 100 μM Ibuprofen: yolk injection of 25 μM Caspase 3 inhibitor or PBS at 24 hours; for opaque cells at one hour after 100 μM Ibuprofen: Ibuprofen at 26 hours
Experimental: To determine if the teleost model could be used to screen for compounds which blocked or reduced cell death activity, embryos were microinjected with a Caspase 3 inhibitor (Calbiochem #264155) prior to exposure to Ibuprofen.
Specifically, embryos at 24 hours of development were dechorionated and microinjected with either 25 μM Caspase 3 inhibitor or PBS into the yolk. At 26 hours of development, embryos were exposed to 100 μM Ibuprofen by addition to the media.

[4] = 2 mg/ml solution, 24 hour embryos, AP staining at 72 hours
[5] = 24 hour embryos pretreated with dye

| Compound | other effects / complications in the embryo (zebrafish embryo) | effect on blood vessel formation (zebrafish embryo) | diffusion into the zebrafish embryo (zebrafish embryo) | opacity at two hours after the addition of 100 μM Ibuprofen (zebrafish embryos [3]) | opaque cells at one hour after 100 μM Ibuprofen (zebrafish embryos [3]) | further results |
| --- | --- | --- | --- | --- | --- | --- |
| endostatin |  |  |  |  |  | effect on vessel formation after injection (zebrafish embryos [1]; injected into the zebrafish as was VEGF): inconsistent and thus uninterpretable |
| Ovicillin | pericardial edema | reduction in the subintestinal vessels | capable of diffusing into the zebrafish embryo |  |  |  |
| CO[C@@H]1[C@H](OC(=O)/C=C/C=C/C=C/C=C/C(=O)O)CC[C@]2(CO2)[C@H]1[C@@]1(C)O[C@@H]1CC=C(C)C [fumagillin] | pericardial edema, developmental delay, and axial defects | reduction in angiogenesis | capable of diffusing into the zebrafish embryo |  |  |  |
| VEGF |  |  |  |  |  | angiogenic phenotypes after injection into the yolk (zebrafish embryos [1]; [4]): the appearance of long spikes projecting from the subintestinal vessel basket; also recorded: increased vessel diameters in the subintestinal basket; effect after injection into the perivitelline space (zebrafish embryos [1]; [4]): disruption of vessel formation; also recorded: fusion of large vessels, inappropriate vessel formation |
| CC(C)Cc1ccc(C(C)C(=O)O)cc1 (centres unmarked) [Ibuprofen] |  |  |  | completely opaque | opaque cells were observed | fluorescently labeled (dead or dying) cells within 1 hour (zebrafish embryos [2]; 24 hour embryos pretreated with 100 nanomolar dye): fluorescently labeled cells were detected in the posterior tip of the tail; fluorescently labeled cells at 1 hour and 30 minutes (zebrafish embryos [2]; [5]): labeled cells were detected in a large patch, extended from the tip of the tail to the level of the anus; fluorescently labeled cells by two hours (zebrafish embryos [2]; [5]): fluorescently labeled cells could be seen throughout the embryo |
| COC(=O)CC[C@H](NC(=O)[C@H](CC(=O)OC)NC(=O)OCc1ccccc1)C(=O)N[C@H](C(=O)N[C@@H](CC(=O)OC)C(=O)CF)C(C)C [Caspase 3 inhibitor] |  |  |  | still transparent | not in embryos injected with the Caspase inhibitor | survival by 24 hours after the introduction of 100 μM Ibuprofen (zebrafish embryos [3]; yolk injection of 25 μM Caspase 3 inhibitor): all of the experimental embryos were dead |
